Data published in paper PMC4790384, “Position-Dependent Influence of the Three Trp Residues on the Membrane Activity of the Antimicrobial Peptide, Tritrpticin” (Antibiotics, 2014).
≈ marks a conversion by molar mass, not a printed value. Ends that are not written are not given here.

Tested on: E. coli ATCC 25922
Assay type: cell-based, Escherichia coli
Experimental: The minimum inhibitory concentration (MIC) of Tritrp1 and its Trp-substituted analogs against E. coli ATCC 25922 was measured by the standard broth microdilution method. Bacteria (5 × 10^5 CFU/mL) were incubated overnight at 37 °C in Mueller-Hinton broth (MHB) and in the presence of peptides diluted in a two-fold concentration series ranging from 0.25–128 µM in a 96-well polypropylene plate. The reported MIC values correspond to the minimum peptide concentration where bacterial growth was not observed. After overnight incubation, 10 µL from the first three wells without bacterial growth for each peptide in the MIC plate were diluted 1:10^6 in MHB, and 100 µL of this dilution was plated in MHB-agar. After incubation overnight at 37 °C, the minimum bactericidal concentration (MBC) was reported as the minimum peptide concentration where no colony formation was detected.

VRRFPYWYPFLRR-NH2 [Peptide W68Y]
MBC: 16 µM
MIC: 16 µM

VRRFPWYWPFLRR-NH2 [Peptide W7Y]
MBC: 8 µM
MIC: 8 µM

VRRFPAWAPFLRR-NH2 [Peptide W68A]
MBC: 64 to 128 µM
MIC: 64 to 128 µM

VRRFPAWWPFLRR-NH2 [Peptide W6A]
MBC: 32 to 64 µM
MIC: 32 to 64 µM

VRRFPAAWPFLRR-NH2 [Peptide W67A]
MBC: 64 to 128 µM
MIC: 64 to 128 µM

VRRFPWYYPFLRR-NH2 [Peptide W78Y]
MBC: 16 µM
MIC: 16 µM

VRRFPWWAPFLRR-NH2 [Peptide W8A]
MBC: 8 µM
MIC: 8 µM

VRRFPYYYPFLRR-NH2 [Y-Tritrp]
MBC: 16 to 32 µM

CC(C)C[C@H](NC(=O)[C@H](Cc1ccccc1)NC(=O)[C@@H]1CCCN1C(=O)[C@H](Cc1c[nH]c2ccccc12)NC(=O)[C@H](Cc1c[nH]c2ccccc12)NC(=O)[C@H](Cc1c[nH]c2ccccc12)NC(=O)[C@@H]1CCCN1C(=O)[C@H](Cc1ccccc1)NC(=O)[C@H](CCCNC(=N)N)NC(=O)[C@H](CCCNC(=N)N)NC(=O)[C@@H](N)C(C)C)C(=O)N[C@@H](CCCNC(=N)N)C(=O)N[C@@H](CCCNC(=N)N)C(N)=O [Tritrp1, reference compound]
MBC: 4 µM (≈ 7.61 µg/mL)
MIC: 4 µM (≈ 7.61 µg/mL)

VRRFPWAWPFLRR-NH2 [Peptide W7A]
MBC: 16 µM
MIC: 16 µM

VRRFPWWYPFLRR-NH2 [Peptide W8Y]
MBC: 4 µM
MIC: 4 µM

VRRFPWAAPFLRR-NH2 [Peptide W78A]
MBC: 64 to 128 µM
MIC: 64 to 128 µM

VRRFPYYWPFLRR-NH2 [Peptide W67Y]
MBC: 32 µM
MIC: 32 µM

VRRFPAAAPFLRR-NH2 [A-Tritrp]
MBC: >128 µM
MIC: >128 µM

VRRFPYWWPFLRR-NH2 [Peptide W6Y]
MBC: 16 µM
MIC: 16 µM
